# Data as given in patent publication US20240383923A1, “HETEROARYL DERIVATIVE AND USE THEREOF” (VORONOI INC., priority 2022, published 2024).
# Read-outs that look alike come from different tables or passages of the source.
# Assays:
# BT-474 cancer cells = test: Inhibition of BT-474 cell proliferation (CellTiter-Glo); format: cell-based; details: Homo sapiens, BT-474 cells, 120 hours
# Procedure, shortened: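 BT-474 cells in RPMI-1640 with 20% FBS, seeded 48 h before dosing with 11 three-fold dilutions (final 0.2 nM to 10 μM). Viability read by CellTiter-Glo luminescence 120 h after treatment, triplicate tests. GI50 derived from growth rate (%) versus control.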
# HER2 enzyme = biological target: T1, HER2 enzyme (Homo sapiens, UniProt P04626); test: Biochemical kinase assay for HER2 (Reaction Biology Corp.); details: ATP 10 μM, 3-fold dilution from 10 μM
# T1 construct: purchased Reaction Biology Corp. (San Diego, USA); outsourced assay service
# T1 sequence (P04626 23-1255): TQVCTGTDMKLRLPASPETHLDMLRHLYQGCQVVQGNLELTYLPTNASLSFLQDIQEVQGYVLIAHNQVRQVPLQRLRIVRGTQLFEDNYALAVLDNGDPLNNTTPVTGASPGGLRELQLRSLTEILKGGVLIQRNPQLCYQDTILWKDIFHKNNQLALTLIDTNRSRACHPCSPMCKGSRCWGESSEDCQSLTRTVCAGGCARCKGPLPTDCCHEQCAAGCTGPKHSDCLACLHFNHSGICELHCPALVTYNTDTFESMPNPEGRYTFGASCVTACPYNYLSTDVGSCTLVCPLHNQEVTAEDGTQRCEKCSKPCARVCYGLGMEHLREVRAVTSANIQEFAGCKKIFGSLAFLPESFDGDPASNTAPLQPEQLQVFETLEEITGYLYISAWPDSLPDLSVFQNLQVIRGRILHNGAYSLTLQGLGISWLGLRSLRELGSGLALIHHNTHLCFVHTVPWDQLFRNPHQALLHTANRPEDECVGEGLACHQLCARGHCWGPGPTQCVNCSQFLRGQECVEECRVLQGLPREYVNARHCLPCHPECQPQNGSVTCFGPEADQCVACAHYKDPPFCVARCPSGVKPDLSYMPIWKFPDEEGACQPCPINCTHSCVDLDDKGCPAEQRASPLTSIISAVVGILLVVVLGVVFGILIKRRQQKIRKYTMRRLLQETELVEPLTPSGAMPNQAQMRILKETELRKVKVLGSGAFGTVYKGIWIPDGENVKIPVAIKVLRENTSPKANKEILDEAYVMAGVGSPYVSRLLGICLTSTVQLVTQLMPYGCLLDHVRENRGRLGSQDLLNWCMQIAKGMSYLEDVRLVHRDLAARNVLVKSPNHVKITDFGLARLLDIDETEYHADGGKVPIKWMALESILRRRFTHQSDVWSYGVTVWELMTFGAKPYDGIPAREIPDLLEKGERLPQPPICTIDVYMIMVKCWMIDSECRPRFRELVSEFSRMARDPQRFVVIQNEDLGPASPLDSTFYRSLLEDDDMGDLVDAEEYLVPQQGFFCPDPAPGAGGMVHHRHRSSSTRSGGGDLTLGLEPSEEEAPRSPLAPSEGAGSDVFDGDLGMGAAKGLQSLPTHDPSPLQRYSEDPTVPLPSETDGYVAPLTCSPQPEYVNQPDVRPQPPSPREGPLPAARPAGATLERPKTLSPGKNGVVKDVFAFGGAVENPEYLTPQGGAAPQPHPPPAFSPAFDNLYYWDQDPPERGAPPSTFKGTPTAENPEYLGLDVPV
# Method: A biochemical kinase assay for HER2 was conducted through Reaction Biology Corp. (San Diego, USA).
# N-87 cancer cells = test: Inhibition of N-87 cell proliferation (CellTiter-Glo); format: cell-based; details: N-87 cells, 72 hours
# Method: N-87 cancer cells were cultured by using RPMI-1640 medium with 10% FBS. The N-87 cancer cells were seeded to a white clear bottom 96 well plate (Corning) at 5,000 cells per well 24 hours before the […] cancer cells were treated with Example Compounds. Example Compounds were diluted in dimethylsulfoxide (5-fold diluted, total 11 concentrations) and 0.5 μL each was injected so that the final concentration was […]. For the measurement of living cells, the cells were stored at room temperature for 10 minutes using the CellTiter-Glo cell viability reagent (Promega) after 72 hours after the treatment of Example Compounds, and then the luminescence intensity was measured using the reader (SynergyNeo, Biotek).
# The result value was calculated as a cell growth rate (%) compared to a control group. Graphs were plotted and GI50 values were calculated using the GraphPad Prism version 8.0 program, and the results are shown in Table 18 below.
# Ba/F3 HER2 L755P cells = test: Inhibition of transduced Ba/F3 cell proliferation, HER2 L755P; format: cell-based; details: Mus musculus, BaF3, 72 hours, CellTiter-Glo
# Method: (§1) Transduced Ba/F3 cells were cultured by adding 1 μg/mL of puromycin (Invitrogen) to a medium (RPMI-1640) containing 10% fetal bovine serum (FBS). 3,000 Ba/F3 HER2 WT cells were seeded to a white clear bottom 96 well plate (Corning) 24 hours before the Ba/F3 HER2 WT cells were treated with Example compounds. For Ba/F3 HER2 L755S, Ba/F3 HER2 L755P, Ba/F3 HER2 T862A, and Ba/F3 HER2 L869R/T798I cells, 5,000 cells each were seeded to a white clear bottom 96 well plate (Corning) 24 hours before the cells were treated with the compounds. Example Compounds were diluted in dimethylsulfoxide (3-fold diluted, total 11 concentrations) and 0.5 μL each was injected so that the final concentration was 0.2 nM to 10 μM. For the measurement of living cells, the cells were stored at room temperature for 10 minutes using the CellTiter-Glo cell viability reagent (Promega) after 72 hours after the treatment of Example Compounds, and then the luminescence intensity was measured using the reader (SynergyNeo, Biotek). Each test was repeated twice.
# (§2) The result value was calculated as a cell growth rate (%) compared to a control group, and the GI50 values were calculated using the software (GraphPad Prism version 8.0), and the results are shown in Table 19 below.
# Ba/F3 HER2 L755S cells = test: Inhibition of transduced Ba/F3 cell proliferation, HER2 L755S; format: cell-based; details: Mus musculus, BaF3, 72 hours, CellTiter-Glo
# Method: as §1, §2
# Ba/F3 HER2 T862A cells = test: Inhibition of transduced Ba/F3 cell proliferation, HER2 T862A; format: cell-based; details: Mus musculus, BaF3, 72 hours, CellTiter-Glo
# Method: as §1, §2
# Ba/F3 HER2 WT cells = test: Inhibition of transduced Ba/F3 cell proliferation, HER2 WT; format: cell-based; details: Mus musculus, BaF3, 72 hours, CellTiter-Glo
# Method: as §1, §2
# [1] = test system: Ba/F3 HER2 L869R/T798I cells; test: Inhibition of transduced Ba/F3 cell proliferation, HER2 L869R/T798I; format: cell-based; details: Mus musculus, BaF3, 72 hours, CellTiter-Glo
# Method: as §1, §2
# HER2 mutant cancers = details: cited from earlier work; for response of patients with HER2 mutation: phase 1 and 2 clinical trials; for objective response rate (ORR): SUMMIT clinical trial
Compound,GI50 (BT-474 cancer cells),IC50 (HER2 enzyme),GI50 (N-87 cancer cells),GI50 (Ba/F3 HER2 L755P cells),GI50 (Ba/F3 HER2 L755S cells),GI50 (Ba/F3 HER2 T862A cells),GI50 (Ba/F3 HER2 WT cells),GI50 [1],response of patients with HER2 mutation (HER2 mutant cancers),objective response rate (ORR) (HER2 mutant cancers; HER2 mutant breast cancer patients),objective response rate (ORR) (HER2 mutant cancers; HER2 mutant lung cancer patients),objective response rate (ORR) (HER2 mutant cancers; other cancers having HER2 mutations)
"COc1cc2ncnc(Nc3cc(C)c(Oc4ccn5ncnc5c4)cc3OC)c2cc1NC(=O)/C(F)=C/[C@H]1CCCN1C [Example 111, (R,Z)—N-(4-((4-([1,2,4]triazolo[1,5-a]pyridin-7-yloxy)-2-methoxy-5-methylphenyl)amino)-7-methoxyquinazolin-6-yl)-2-fluoro-3-(1-methylpyrrolidin-2-yl)acrylamide]",≤ 50 nM,≤ 50 nM,≤ 50 nM,,,,,,,,,
"COc1cc2ncnc(Nc3cc(Cl)c(Oc4ccn5ncnc5c4)cc3OC)c2cc1NC(=O)/C(F)=C/[C@H]1CCCN1C [Example 128, (R,Z)—N-(4-((4-([1,2,4]triazolo[1,5-a]pyridin-7-yloxy)-5-chloro-2-methoxyphenyl)amino)-7-methoxyquinazolin-6-yl)-2-fluoro-3-(1-methylpyrrolidin-2-yl)acrylamide]",≤ 50 nM,≤ 50 nM,≤ 50 nM,≤ 50 nM,≤ 50 nM,≤ 50 nM,≤ 50 nM,≤ 50 nM,,,,
COc1cc2ncnc(Nc3ccc(F)c(Cl)c3)c2cc1NC(=O)/C=C/CN1CCCCC1 [dacomitinib],,,,,,,,,partial responses,,,
CCOc1cc2ncc(C#N)c(Nc3ccc(OCc4ccccn4)c(Cl)c3)c2cc1NC(=O)/C=C/CN(C)C [neratinib],,,,,,,,,partial responses,24%,3.8%,0%

# Continued, in another order:
GI50 (BT-474 cancer cells),IC50 (HER2 enzyme),GI50 (N-87 cancer cells),GI50 (Ba/F3 HER2 L755P cells),GI50 (Ba/F3 HER2 L755S cells),GI50 (Ba/F3 HER2 T862A cells),GI50 (Ba/F3 HER2 WT cells),GI50 [1],Compound,response of patients with HER2 mutation (HER2 mutant cancers),objective response rate (ORR) (HER2 mutant cancers; HER2 mutant breast cancer patients),objective response rate (ORR) (HER2 mutant cancers; HER2 mutant lung cancer patients),objective response rate (ORR) (HER2 mutant cancers; other cancers having HER2 mutations)
≤ 50 nM,≤ 50 nM,≤ 50 nM,,,,,,"COc1cc2ncnc(Nc3cc(C)c(Oc4ccn5ncnc5c4)cc3OC)c2cc1NC(=O)/C=C/[C@H]1CCCN1C [Example 29, (R,E)-N-(4-((4-([1,2,4]triazolo[1,5-a]pyridin-7-yloxy)-2-methoxy-5-methylphenyl)amino)-7-methoxyquinazolin-6-yl)-3-(1-methylpyrrolidin-2-yl)acrylamide]",,,,
≤ 50 nM,≤ 50 nM,≤ 50 nM,,,,,,"COc1cc2ncnc(Nc3cc(Cl)c(Oc4cccc(F)c4)cc3OC)c2cc1NC(=O)/C=C/[C@H]1CCCN1C [Example 30, (R,E)-N-(4-((5-chloro-4-(3-fluorophenoxy)-2-methoxyphenyl)amino)-7-methoxyquinazolin-6-yl)-3-(1-methylpyrrolidin-2-yl)acrylamide]",,,,
≤ 50 nM,≤ 50 nM,≤ 50 nM,,,,,,"COc1cc2ncnc(Nc3cc(Cl)c(Oc4ccccn4)cc3OC)c2cc1NC(=O)/C=C/[C@H]1CCCN1C [Example 33, (R,E)-N-(4-((5-chloro-2-methoxy-4-(pyridin-2-yloxy)phenyl)amino)-7-methoxyquinazolin-6-yl)-3-(1-methylpyrrolidin-2-yl)acrylamide]",,,,
≤ 50 nM,≤ 50 nM,≤ 50 nM,≤ 50 nM,≤ 50 nM,≤ 50 nM,≤ 50 nM,≤ 50 nM,"COc1cc2ncnc(Nc3cc(Cl)c(Oc4cccc(F)c4)cc3OC)c2cc1NC(=O)/C(F)=C\[C@H]1CCCN1C [Example 42, (R,E)-N-(4-((5-chloro-4-(3-fluorophenoxy)-2-methoxyphenyl)amino)-7-methoxyquinazolin-6-yl)-2-fluoro-3-(1-methylpyrrolidin-2-yl)acrylamide]",,,,
≤ 50 nM,≤ 50 nM,≤ 50 nM,≤ 50 nM,≤ 50 nM,≤ 50 nM,≤ 50 nM,≤ 50 nM,"COc1cc2ncnc(Nc3cc(F)c(Oc4ccn5ncnc5c4)cc3OC)c2cc1NC(=O)/C(F)=C/[C@H]1CCCN1C [Example 50, (R,Z)—N-(4-((4-([1,2,4]triazolo[1,5-a]pyridin-7-yloxy)-5-fluoro-2-methoxyphenyl)amino)-7-methoxyquinazolin-6-yl)-2-fluoro-3-(1-methylpyrrolidin-2-yl)acrylamide]",,,,
